# Structures can show the parent of a compound that is named as a salt.
# Assays:
# Format in all cases: cell-based
# [1] = tested on: Clostridium perfringens 81; assay: microbe, parasite or virus in culture; conditions: agar dilution, 37° C.
# [2] = tested on: Fusobacterium necrophorum 6054A; assay: Agar dilution susceptibility of anaerobic bacteria (Chart 1); conditions: agar dilution, 37° C., Fusobacterium necrophorum 6054A
# [3] = tested on: Peptococcus asaccharolyticus 1302; assay: as above; conditions: agar dilution, 37° C., Peptococcus asaccharolyticus 1302
# [4] = tested on: Bacteroides melaninogenicus 2736; assay: as above; conditions: agar dilution, 37° C., Bacteroides melaninogenicus 2736
# [5] = tested on: Bacteroides vulgatis 1211; assay: as above; conditions: agar dilution, 37° C., Bacteroides vulgatis 1211
# [6] = tested on: Actinomyces israelii W855; assay: as above; conditions: Actinomyces israelii, W855, 24 h, read-out: 24 Hr. MIC, agar dilution, 37° C.
# [7] = tested on: Peptococcus prevoti 1281; assay: as above; conditions: agar dilution, 37° C.
# [8] = tested on: Eubacterium aerofaciens 1235; assay: as above; conditions: agar dilution, 37° C., Eubacterium aerofaciens 1235
# [9] = tested on: Bacteroides corrodens 1874; assay: as above; conditions: agar dilution, 37° C., Bacteroides corrodens 1874
# [10] = tested on: Propionibacterium acnes 79; assay: as above; conditions: Cutibacterium acnes, 79, 24 h, read-out: 24 Hr. MIC
# [11] = tested on: Clostridium septicum 1128; assay: as above; conditions: 37° C.
# Method: The susceptibility of anaerobic bacteria, both gram positive and gram negative, to a representative number of the novel compounds of this application was determined using the agar dilution method. The bacteria used were isolated from patients hospitalized at the Indiana Univerisity Medical Center. The isolates were identified in the anaerobe laboratory of the Medical Center by the criteria established by Dowell et al., Laboratory Methods in Anaerobic Bacteriology. Public Health Serv. Publ. NO. 1803 (1968) [Center for Disease Control, Atlanta, Ga.]; and by Smith et al., The Pathogenic Anaerobic Bacteria, pages 96- 136 (1968) [Charles C. Thomas, Publisher, Springfield, Ill.]. All the organisms were maintained in chopped meat glucose medium (Scott Labs) at room temperature.
# The method used for the agar dilution tests was based on the studies of Sutter et al., Antimicrob. Ag. Chemother. 3, 188-193 (1973). The strains of anaerobic bacteria were grown in 16×× 120 mm. tubes for 16 to 18 hours in Thioglycolate medium without indicator-- 135C (Becton, Dickinson and Co.), to which was added 5 mcg. of hemin per milliliter prior to autoclaving, plus 1 mg. of sodium bicarbonate and 0.1 mcg. of filter-sterilized menadione per milliliter after autoclaving. The strains were adjusted to the turbidity of the No. 1 McFarland standard in Thioglycolate medium without indicator-- 135C containing an additional 0.13 percent Bacto-agar (Difco). Each strain was then applied to the surface of the petri plate (100 mm× 15 mm.) by means of a replicator.
# For the agar dilution studies, two-fold dilutions of the test compounds were prepared in deionized water to which was then added laked sheep blood and filter-sterilized menadione so the concentrations after the agar dilution were 5 percent and 10 mcg./ml. respectively. An equal volume of double strength Brucella agar (Becton, Dickinson and Co.) was mixed with each dilution in a water bath held at 50° C. and then poured onto the petri dishes.
# All of the procedures were done inside a plastic glove box, except for the incubation of the growth tubes and the pouring of the plates. After the plates hardened, they were put inside the glove box for a minimum of 2 hours before they were inoculated. Generally, the glove box procedures of Aranki et al., Applied Microbiology 17, 568-576 (1969), were followed, but the following modifications were used. Dry materials were introduced into the glove box by evacuating the lock to 28 inches of mercury and filling once with nitrogen gas, followed by evacuating in the same manner and filling with an 80 percent nitrogen plus 10 percent CO2 plus 10 percent hydrogen gas mixture. Liquid media and agar plates were introduced into the glove box by evacuating the lock to 10 inches of mercury and filling with gas four times. The nitrogen gas was used to fill the lock for the first two cycles of evacuation, with the gas mixture described above used for the final two fillings.
# All the plates were incubated at 37° C. in Gas Pak jars (Becton, Dickinson and Co.) containing palladium-coated alumina catalysts (reactivated after each use). The results of the agar dilution tests were read after about 24 hours of incubation. The minimum inhibitory concentration (MIC) was recorded as the lowest concentration of test compound at which there was no growth.
# The test compounds are identified by the number of the example describing their preparation. The antibiotics clindamycin (C), and erythromycin (E) were also run simultaneously with the novel compounds of this application,for comparison purposes, and the results are included in Chart 1 below.
# [12] = tested on: Peptostreptococcus intermedius 1264; assay: as above; conditions: agar dilution, 37° C., Peptostreptococcus intermedius 1264
# [13] = tested on: Peptostreptococcus anaerobius 1428; assay: as above; conditions: agar dilution, 37° C., Peptostreptococcus anaerobius 1428
# [14] = tested on: Bacteroides melaninogenicus 1856/28; assay: as above; conditions: agar dilution, 37° C., Bacteroides melaninogenicus 1856/28
# [15] = tested on: Bacteroides fragilis sp. fragilis 1936B; assay: as above; conditions: agar dilution, 37° C., Bacteroides fragilis sp. fragilis 1936B
# [16] = tested on: Fusobacterium symbiosum 1470; assay: as above; conditions: agar dilution, 37° C., Fusobacterium symbiosum 1470
# [17] = tested on: Bacteroides fragilis sp. thetaiotaomicron 1900A; assay: as above; conditions: agar dilution, 37° C.; Bacteroides fragilis sp. thetaiotaomicron 1900A; sodium salt
# [18] = tested on: Bacteroides fragilis sp. fragilis 103; assay: as above; conditions: agar dilution, 37° C.; Bacteroides fragilis sp. fragilis 103; sodium salt
# [19] = tested on: Bacteroides fragilis sp. thetaiotaomicron 1438; assay: as above; conditions: agar dilution, 37° C.; Bacteroides fragilis sp. thetaiotaomicron 1438; sodium salt
# [20] = tested on: Bacteroides fragilis sp. fragilis 110; assay: as above; conditions: agar dilution, 37° C.; Bacteroides fragilis sp. fragilis 110; sodium salt
# [21] = tested on: Bacteroides fragilis sp. fragilis 1451; assay: as above; conditions: agar dilution, 37° C.; Bacteroides fragilis sp. fragilis 1451; sodium salt
# [22] = tested on: Bacteroides fragilis sp. fragilis 113; assay: as above; conditions: agar dilution, 37° C.; Bacteroides fragilis sp. fragilis 113; sodium salt
# [23] = tested on: Bacteroides fragilis sp. fragilis 107; assay: as above; conditions: agar dilution, 37° C.; Bacteroides fragilis sp. fragilis 107; sodium salt
# [24] = tested on: Bacteroides fragilis sp. fragilis 2; assay: as above; conditions: agar dilution, 37° C.; Bacteroides fragilis sp. fragilis 2; sodium salt
# [25] = tested on: Bacteroides fragilis sp. vulgatis 1563; assay: as above; conditions: agar dilution, 37° C.; Bacteroides fragilis sp. vulgatis 1563; sodium salt
# [26] = tested on: Bacteroides fragilis sp. fragilis 1877; assay: as above; conditions: agar dilution, 37° C.; Bacteroides fragilis sp. fragilis 1877; sodium salt
# [27] = tested on: Bacteroides fragilis sp. fragilis 108; assay: as above; conditions: agar dilution, 37° C.; Bacteroides fragilis sp. fragilis 108; sodium salt
# [28] = tested on: Bacteroides fragilis sp. fragilis 111; assay: as above; conditions: agar dilution, 37° C.; Bacteroides fragilis sp. fragilis 111; sodium salt
# [29] = tested on: Bacteroides fragilis sp. fragilis 1470; assay: as above; conditions: agar dilution, 37° C.; Bacteroides fragilis sp. fragilis 1470; sodium salt
# [30] = tested on: Bacteroides fragilis sp. fragilis 112; assay: as above; conditions: agar dilution, 37° C.; Bacteroides fragilis sp. fragilis 112; sodium salt
# [31] = tested on: Bacteroides fragilis sp. fragilis 62; assay: as above; conditions: agar dilution, 37° C.; Bacteroides fragilis sp. fragilis 62; sodium salt
# [32] = tested on: Bacteroides fragilis sp. fragilis 9; assay: as above; conditions: agar dilution, 37° C.; Bacteroides fragilis sp. fragilis 9; sodium salt
smiles,measurement,setting,value
"CCOC(=O)C(=O)Nc1c(C#N)c(-c2ncc([N+](=O)[O-])n2C)nn1C [Example 4, N-[4-Cyano-1-methyl-3-(1-methyl-5-nitroimidazol-2-yl)pyrazol-5-yl]oxamic acid, ethyl ester, ammonium salt]",24 Hr. MIC,[1]; ammonium salt,≤ 0.5 µg/mL
same,24 Hr. MIC,[2]; ammonium salt,≤ 0.5 µg/mL
same,24 Hr. MIC,[3]; ammonium salt,≤ 0.5 µg/mL
same,24 Hr. MIC,[4]; ammonium salt,≤ 0.5 µg/mL
same,24 Hr. MIC,[5]; ammonium salt,≤ 0.5 µg/mL
same,MIC,[6],> 128 µg/mL
same,24 Hr. MIC,[7]; ammonium salt,32 µg/mL
same,24 Hr. MIC,[8]; ammonium salt,≤ 0.5 µg/mL
same,24 Hr. MIC,[9]; ammonium salt,≤ 0.5 µg/mL
same,MIC,[10],> 128 µg/mL
same,24 Hr. MIC,[11]; ammonium salt,16 µg/mL
same,24 Hr. MIC,[12]; ammonium salt,≤ 0.5 µg/mL
same,24 Hr. MIC,[13]; ammonium salt,≤ 0.5 µg/mL
same,24 Hr. MIC,[14]; ammonium salt,1.0 µg/mL
same,24 Hr. MIC,[15]; ammonium salt,≤ 0.5 µg/mL
same,24 Hr. MIC,[16]; ammonium salt,≤ 0.5 µg/mL
"Cn1nc(-c2ncc([N+](=O)[O-])n2C)c(C#N)c1NC(=O)C(=O)NN [Example 8, 5-[4-Cyano-1-methyl-3-(1-methyl-5-nitroimidazol-2-yl)pyrazol-5-yl]semioxamazide, sodium salt]",24 Hr. MIC,[1]; sodium salt,2 µg/mL
same,24 Hr. MIC,[2]; sodium salt,0.5 µg/mL
same,24 Hr. MIC,[3]; sodium salt,1.0 µg/mL
same,24 Hr. MIC,[4]; sodium salt,0.5 µg/mL
same,24 Hr. MIC,[5]; sodium salt,1.0 µg/mL
same,MIC,[6],> 128 µg/mL
same,24 Hr. MIC,[7]; sodium salt,32 µg/mL
same,24 Hr. MIC,[8]; sodium salt,4 µg/mL
same,24 Hr. MIC,[9]; sodium salt,1.0 µg/mL
same,MIC,[10],> 128 µg/mL
same,24 Hr. MIC,[13]; sodium salt,0.5 µg/mL
same,24 Hr. MIC,[14]; sodium salt,16 µg/mL
same,24 Hr. MIC,[15]; sodium salt,1.0 µg/mL
same,24 Hr. MIC,[16]; sodium salt,0.5 µg/mL
"Cn1nc(-c2ncc([N+](=O)[O-])n2C)c(C#N)c1NC(=O)C(=O)c1ccccc1 [Example 11, N-[4-Cyano-1-methyl-3-(1-methyl-5-nitroimidazol-2-yl)pyrazol-5-yl]-2-phenylglyoxylamide, sodium salt]",24 Hr. MIC,[17],0.125 µg/mL
same,24 Hr. MIC,[1]; sodium salt,0.5 µg/mL
same,24 Hr. MIC,[18],0.06 µg/mL
same,24 Hr. MIC,[19],0.125 µg/mL
same,24 Hr. MIC,[20],0.06 µg/mL
same,24 Hr. MIC,[2]; sodium salt,0.25 µg/mL
same,24 Hr. MIC,[21],0.125 µg/mL
same,24 Hr. MIC,[4]; sodium salt,≤ 0.03 µg/mL
same,24 Hr. MIC,[22],0.125 µg/mL
same,24 Hr. MIC,[5]; sodium salt,1.0 µg/mL
same,24 Hr. MIC,[23],0.06 µg/mL
same,24 Hr. MIC,[7]; sodium salt,2 µg/mL
same,24 Hr. MIC,[24],0.06 µg/mL
same,24 Hr. MIC,[8]; sodium salt,0.5 µg/mL
same,24 Hr. MIC,[25],0.25 µg/mL
same,24 Hr. MIC,[26],0.06 µg/mL
same,24 Hr. MIC,[27],0.06 µg/mL
same,24 Hr. MIC,[9]; sodium salt,0.25 µg/mL
same,24 Hr. MIC,[11]; sodium salt,0.25 µg/mL
same,24 Hr. MIC,[12]; sodium salt,32 µg/mL
same,24 Hr. MIC,[28],0.06 µg/mL
same,24 Hr. MIC,[29],0.06 µg/mL
same,24 Hr. MIC,[13]; sodium salt,0.25 µg/mL
same,24 Hr. MIC,[30],0.06 µg/mL
same,24 Hr. MIC,[14]; sodium salt,16 µg/mL
same,24 Hr. MIC,[15]; sodium salt,0.06 µg/mL
same,24 Hr. MIC,[31],0.06 µg/mL
same,24 Hr. MIC,[32],0.06 µg/mL

# — patent publication US4029671A, “3-[(5-nitro-2-imidazolyl)pyrazol-5-yl]oxamic acid derivatives” (priority 1976, dated 1977)
